Measurements: patent publication US20090075951A1, “Methods and Reagents for the Treatment of Inflammatory Disorders” (CombinatoRx, Inc., priority 2003, published 2009)
Where two headings read alike, the source gives them in different places.

Key:
[1] = system: TNFα secretion from PMA/ionomycin stimulated white blood cells from human buffy coat; test: TNFα secretion assay, PMA/ionomycin stimulation
Protocol: (§1) Various concentrations of each test compound were added at the time of stimulation. […] After the plate was washed with 0.1% Tween 20/PBS, an HRP-luminescent substrate was added to each well and light intensity measured using a LJL Analyst plate luminometer.

[2] = system: TNFα secretion from LPS stimulated white blood cells from human buffy coat; test: TNFα secretion assay, LPS stimulation; conditions: Homo sapiens, read-out: percent inhibition of TNFα secretion, LPS; for inhibition at 0.008 µM: Prednisolone 0.008 μM; for inhibition at 0.5 µM: Prednisolone 0.5 μM; for inhibition at 1 µM: Prednisolone 1 μM
Protocol: as §1

[3] = Amoxapine μM r5-r13: 0,0.25,0.5,1,2,4,8,16,32
[4] = Clomipramine μM r5-r13: 0,0.45,0.89,1.8,3.6,7.1,14,28,57
[5] = Desipramine μM r5-r13: 0,0.5,1,2,4,8,16,32,64
[6] = Fluoxetine μM r5-r13: 0,0.23,0.45,0.9,1.8,3.6,7.2,14,29
[7] = Loxapine μM r5-r13: 0,0.35,0.7,1.4,2.8,5.6,11,22,45
[8] = Norclozapine μM r5-r13: 0,0.21,0.41,0.83,1.7,3.3,6.6,13,27
[9] = Nortriptyline μM r5-r13: 0,0.52,1,2.1,4.2,8.3,17,33,67

Work on `C[C@]12C=CC(=O)C=C1CC[C@@H]1[C@@H]2[C@@H](O)C[C@@]2(C)[C@H]1CC[C@]2(O)C(=O)CO` [Prednisolone, prednisolone] yielded an inhibition at 0.01 µM ([1]; read-out: inhibition of TNFα secretion, Prednisolone 10 nM, Desipramine nM: 0, 50, 200, 799, 3197, 13000) of -0.66%, an inhibition at 0.01 µM ([1]; read-out: inhibition of TNFα secretion, Prednisolone 10 nM, Imipramine nM: 0, 99, 394, 1578, 6311, 25000) of 0.037% and an inhibition at 0.01 µM ([1]; read-out: inhibition of TNFα secretion, Prednisolone 10 nM, Nortriptyline nM: 0, 52, 208, 834, 3336, 13000) of 4.27%. It also gave an inhibition at 0.01 µM ([1]; read-out: inhibition of TNFα secretion, Prednisolone 10 nM, Protriptyline nM: 0, 52, 208, 834, 3336, 13000) of 0.0342%, an inhibition at […] ([1]; read-out: inhibition of TNFα secretion, Prednisolone 42 nM, Desipramine nM: 0, 50, 200, 799, 3197, 13000) of 3.62% and an inhibition at […] ([1]; read-out: inhibition of TNFα secretion, Prednisolone 42 nM, Imipramine nM: 0, 99, 394, 1578, 6311, 25000) of 5.58%. It also gave an inhibition at […] ([1]; read-out: inhibition of TNFα secretion, Prednisolone 42 nM, Nortriptyline nM: 0, 52, 208, 834, 3336, 13000) of 7.41%, an inhibition at 2.656 µM ([1]; read-out: inhibition of TNFα secretion, Prednisolone 2656 nM, Desipramine nM: 0, 50, 200, 799, 3197, 13000) of 38.8% and an inhibition at 2.656 µM ([1]; read-out: inhibition of TNFα secretion, Prednisolone 2656 nM, Imipramine nM: 0, 99, 394, 1578, 6311, 25000) of 40.5%. It also gave an inhibition at 2.656 µM ([1]; read-out: inhibition of TNFα secretion, Prednisolone 2656 nM, Nortriptyline nM: 0, 52, 208, 834, 3336, 13000) of 38.3%, an inhibition at 2.656 µM ([1]; read-out: inhibition of TNFα secretion, Prednisolone 2656 nM, Protriptyline nM: 0, 52, 208, 834, 3336, 13000) of 45.2% and an inhibition at 0.008 µM ([1]; read-out: percent inhibition of TNFα secretion, PMA/ionomycin, Prednisolone 0.008 μM, Amoxapine μM r5-r13: 0,0.25,0.5,1,2,4,8,16,32) of -2.11%. It also gave an inhibition at 0.008 µM ([1]; read-out: percent inhibition of TNFα secretion, PMA/ionomycin, Prednisolone 0.008 μM, Norclozapine μM r5-r13: 0,0.21,0.41,0.83,1.7,3.3,6.6,13,27) of 17%, an inhibition at 0.008 µM ([1]; read-out: percent inhibition of TNFα secretion, PMA/ionomycin, Prednisolone 0.008 μM, Nortriptyline μM r5-r13: 0,0.52,1,2.1,4.2,8.3,17,33,67) of 9.54% and an inhibition at 0.5 µM ([1]; read-out: percent inhibition of TNFα secretion, PMA/ionomycin, Prednisolone 0.5 μM, Amoxapine μM r5-r13: 0,0.25,0.5,1,2,4,8,16,32) of 25%. It also gave an inhibition at 0.5 µM ([1]; read-out: percent inhibition of TNFα secretion, PMA/ionomycin, Prednisolone 0.5 μM, Norclozapine μM r5-r13: 0,0.21,0.41,0.83,1.7,3.3,6.6,13,27) of 44%, an inhibition at 0.5 µM ([1]; read-out: percent inhibition of TNFα secretion, PMA/ionomycin, Prednisolone 0.5 μM, Nortriptyline μM r5-r13: 0,0.52,1,2.1,4.2,8.3,17,33,67) of 29.2% and an inhibition at 1 µM ([1]; read-out: percent inhibition of TNFα secretion, PMA/ionomycin, Prednisolone 1 μM, Amoxapine μM r5-r13: 0,0.25,0.5,1,2,4,8,16,32) of 29.5%. For the same compound, the inhibition at 1 µM ([1]; read-out: percent inhibition of TNFα secretion, PMA/ionomycin, Prednisolone 1 μM, Nortriptyline μM r5-r13: 0,0.52,1,2.1,4.2,8.3,17,33,67) was 38.5%, the inhibition at 0.008 µM ([1]; read-out: percent inhibition of TNFα secretion, Prednisolone 0.008 μM, Clomipramine μM 0, 0.45, 0.89, 1.8, 3.6, 7.1, 14, 28, 57) was 7.57% and the inhibition at 0.008 µM ([1]; read-out: percent inhibition of TNFα secretion, Prednisolone 0.008 μM, Desipramine μM 0, 0.5, 1, 2, 4, 8, 16, 32, 64) was 3.11%. The inhibition at 0.008 µM ([1]; read-out: percent inhibition of TNFα secretion, Prednisolone 0.008 μM, Fluoxetine μM by grid row: r5 0, r6 0.23, r7 0.45, r8 0.9, r9 1.8, r10 3.6, r11 7.2, r12 14, r13 29) was 6.63%, the inhibition at 0.008 µM ([1]; read-out: percent inhibition of TNFα secretion, Prednisolone 0.008 μM, Loxapine μM 0, 0.35, 0.7, 1.4, 2.8, 5.6, 11, 22, 45) was 3.36% and the inhibition at 0.01 µM ([1]; read-out: percent inhibition of TNFα secretion, Prednisolone 10 nM, Amitriptyline nM: 0, 50, 199, 796, 3186, 13000) was -1.26%. It also gave an inhibition at 0.01 µM ([1]; read-out: percent inhibition of TNFα secretion, Prednisolone 10 nM, Amoxapine nM: 0, 12, 50, 199, 797, 3187) of 1.28%, an inhibition at 0.01 µM ([1]; read-out: percent inhibition of TNFα secretion, Prednisolone 10 nM, Clomipramine nM: 0, 45, 178, 712, 2848, 11000) of 0.29% and an inhibition at […] ([1]; read-out: percent inhibition of TNFα secretion, Prednisolone 42 nM, Amitriptyline nM: 0, 50, 199, 796, 3186, 13000) of 7.27%. It also gave an inhibition at […] ([1]; read-out: percent inhibition of TNFα secretion, Prednisolone 42 nM, Amoxapine nM: 0, 12, 50, 199, 797, 3187) of 7.71%, an inhibition at […] ([1]; read-out: percent inhibition of TNFα secretion, Prednisolone 42 nM, Clomipramine nM: 0, 45, 178, 712, 2848, 11000) of 6.83% and an inhibition at 0.5 µM ([1]; read-out: percent inhibition of TNFα secretion, Prednisolone 0.5 μM, Clomipramine μM 0, 0.45, 0.89, 1.8, 3.6, 7.1, 14, 28, 57) of 33.4%. The inhibition at 0.5 µM ([1]; read-out: percent inhibition of TNFα secretion, Prednisolone 0.5 μM, Desipramine μM 0, 0.5, 1, 2, 4, 8, 16, 32, 64) was 32.6%, the inhibition at 0.5 µM ([1]; read-out: percent inhibition of TNFα secretion, Prednisolone 0.5 μM, Fluoxetine μM by grid row: r5 0, r6 0.23, r7 0.45, r8 0.9, r9 1.8, r10 3.6, r11 7.2, r12 14, r13 29) was 39.3% and the inhibition at 0.5 µM ([1]; read-out: percent inhibition of TNFα secretion, Prednisolone 0.5 μM, Loxapine μM 0, 0.35, 0.7, 1.4, 2.8, 5.6, 11, 22, 45) was 31%. It also gave an inhibition at 1 µM ([1]; read-out: percent inhibition of TNFα secretion, Prednisolone 1 μM, Clomipramine μM 0, 0.45, 0.89, 1.8, 3.6, 7.1, 14, 28, 57) of 37.5%, an inhibition at 1 µM ([1]; read-out: percent inhibition of TNFα secretion, Prednisolone 1 μM, Desipramine μM 0, 0.5, 1, 2, 4, 8, 16, 32, 64) of 35.2% and an inhibition at 1 µM ([1]; read-out: percent inhibition of TNFα secretion, Prednisolone 1 μM, Fluoxetine μM by grid row: r5 0, r6 0.23, r7 0.45, r8 0.9, r9 1.8, r10 3.6, r11 7.2, r12 14, r13 29) of 30.6%. It also gave an inhibition at 1 µM ([1]; read-out: percent inhibition of TNFα secretion, Prednisolone 1 μM, Loxapine μM 0, 0.35, 0.7, 1.4, 2.8, 5.6, 11, 22, 45) of 34.8%, an inhibition at 2.656 µM ([1]; read-out: percent inhibition of TNFα secretion, Prednisolone 2656 nM, Amitriptyline nM: 0, 50, 199, 796, 3186, 13000) of 41.6% and an inhibition at 2.656 µM ([1]; read-out: percent inhibition of TNFα secretion, Prednisolone 2656 nM, Amoxapine nM: 0, 12, 50, 199, 797, 3187) of 39%. For the same compound, the inhibition at 2.656 µM ([1]; read-out: percent inhibition of TNFα secretion, Prednisolone 2656 nM, Clomipramine nM: 0, 45, 178, 712, 2848, 11000) was 42.1%, the inhibition at 0.008 µM [2, 3] was 3.67% and the inhibition at 0.008 µM [2, 4] was 2.55%. For the same compound, the inhibition at 0.008 µM [2, 5] was 4.87%, the inhibition at 0.008 µM [2, 6] was 1.18% and the inhibition at 0.008 µM [2, 7] was 4.44%. For the same compound, the inhibition at 0.008 µM [2, 8] was 18%, the inhibition at 0.008 µM [2, 9] was 0.348% and the inhibition at 0.5 µM [2, 3] was 59.1%. For the same compound, the inhibition at 0.5 µM [2, 4] was 64.8%, the inhibition at 0.5 µM [2, 5] was 57.6% and the inhibition at 0.5 µM [2, 6] was 63.9%. It also gave an inhibition at 0.5 µM [2, 7] of 68.8%, an inhibition at 0.5 µM [2, 8] of 79% and an inhibition at 0.5 µM [2, 9] of 51.9%. The inhibition at 1 µM [2, 3] was 66.2%, the inhibition at 1 µM [2, 4] was 66.9% and the inhibition at 1 µM [2, 5] was 59.1%. It also gave an inhibition at 1 µM [2, 6] of 71%, an inhibition at 1 µM [2, 7] of 68.7% and an inhibition at 1 µM [2, 8] of 83%. For the same compound, the inhibition at 1 µM [2, 9] was 53.4%.
